According to publication PMC6915887, “Inhibition of human carboxylesterases by ginsenosides: structure–activity relationships and inhibitory mechanism” (Chinese Medicine, 2019):

Tests used:
Type in all cases: biochemical
hCES2A [1] = molecular target: T1, hCES2A (Homo sapiens, UniProt O00748); test: hCES2A inhibition assay (FD hydrolysis in HLM); settings: for inhibition of hCES2A-mediated FD hydrolysis (residual activity screen): HLM, ginsenoside 100 μM, result in words; for Specificity (hCES1A/hCES2A): ratio of IC50 values in HLM; for IC50: HLM as enzyme source, FD hydrolysis as probe reaction, read-out: IC50 (μM) hCES2A;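 on all read-outs here: HLM at 1 µg/mL in 0.1 M PBS pH 7.4, kinetic read at 37 °C every 30 s over 30 min, triplicate runs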
T1 construct: tissue Bioreclamation IVT lot no; X008067; host or cells: pooled human liver microsomes (50 donors)
T1 sequence (O00748 27-559): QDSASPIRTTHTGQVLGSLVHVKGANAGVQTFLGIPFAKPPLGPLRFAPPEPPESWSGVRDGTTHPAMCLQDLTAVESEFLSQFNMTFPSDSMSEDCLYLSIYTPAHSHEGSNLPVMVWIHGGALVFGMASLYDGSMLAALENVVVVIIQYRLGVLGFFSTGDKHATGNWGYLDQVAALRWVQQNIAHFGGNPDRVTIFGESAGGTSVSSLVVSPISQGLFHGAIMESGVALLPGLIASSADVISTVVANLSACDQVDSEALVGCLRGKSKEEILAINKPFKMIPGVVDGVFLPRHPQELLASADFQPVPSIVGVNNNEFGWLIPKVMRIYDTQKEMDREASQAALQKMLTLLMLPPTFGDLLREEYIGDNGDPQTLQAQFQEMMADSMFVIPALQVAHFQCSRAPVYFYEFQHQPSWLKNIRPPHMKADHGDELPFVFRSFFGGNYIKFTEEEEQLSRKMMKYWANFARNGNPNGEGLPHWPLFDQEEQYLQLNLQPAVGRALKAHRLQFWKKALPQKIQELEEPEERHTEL
Method: The incubation system contains 2 μL HLM (1 μg/mL, final concentration), 194 μL PBS (0.1 M pH 7.4) and 2 μL corresponding inhibitor. […] The kinetic parameters were set at 30 reads, with an interval of 30 s (30 min) and shake during 5 s before the first read at 37 °C.

hCES1A [2] = molecular target: T2, hCES1A (Homo sapiens, UniProt P23141); test: hCES1A inhibition assay (DME hydrolysis in HLM); settings: for IC50: HLM as enzyme source, DME hydrolysis as probe reaction, read-out: IC50 (μM) hCES1A;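 on all read-outs here: Read-out is D-luciferin luminescence formed from DME (3 µM) after 10 min at 37 °C in pH 6.5 PBS, HLM 1 µg/mL, inhibitor preincubated 3 min, oleanic acid as positive control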
T2 construct: tissue Bioreclamation IVT lot no; X008067; host or cells: pooled human liver microsomes (50 donors)
T2 sequence (P23141 18-567): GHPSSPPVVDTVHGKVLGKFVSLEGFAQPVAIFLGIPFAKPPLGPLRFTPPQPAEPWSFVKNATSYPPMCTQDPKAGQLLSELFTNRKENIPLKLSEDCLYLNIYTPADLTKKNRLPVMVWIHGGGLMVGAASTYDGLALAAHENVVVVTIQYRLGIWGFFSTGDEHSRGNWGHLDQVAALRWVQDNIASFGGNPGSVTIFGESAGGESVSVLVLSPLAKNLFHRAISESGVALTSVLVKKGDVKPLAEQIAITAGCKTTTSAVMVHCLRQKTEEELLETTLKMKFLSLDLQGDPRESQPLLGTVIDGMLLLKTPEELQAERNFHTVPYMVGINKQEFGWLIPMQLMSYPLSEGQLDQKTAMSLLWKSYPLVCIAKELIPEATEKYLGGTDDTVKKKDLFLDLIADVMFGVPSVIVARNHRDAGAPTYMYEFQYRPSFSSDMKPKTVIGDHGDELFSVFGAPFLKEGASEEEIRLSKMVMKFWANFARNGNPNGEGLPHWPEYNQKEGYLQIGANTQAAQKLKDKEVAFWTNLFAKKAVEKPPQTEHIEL
Method: DME hydrolysis was used as the probe reaction to assay the inhibitory effects of 25 ginsenosides against hCES1A, oleanic acid was used as a positive control of inhibition assays [43]. The incubation system contains 91 μL PBS (0.1 M pH 6.5), 5 μL HLM (1 μg/mL, final concentration) and 2 μL corresponding inhibitor. After pre-incubating the reaction mixture for 3 min at 37 °C, the reaction was started by adding 2 μL DME (3 μM, final concentration) with a total volume of 100 μL, in which the final content of DMSO was limited to 2% (v/v). After incubating for 10 min at 37 °C in a shaking bath, LDR (50 μL, equal volume of the incubation mixture) was added to terminate the reaction. The luminescence signals of D-luciferin (the hydrolytic metabolite of DME) was measured (excitation wavelength 580 nm) by a multi-mode microplate reader (SpectraMax® iD3, Molecular Devices, Austria).

hCES1A [3] = molecular target: T2, hCES1A; test: Inhibition kinetic analyses of hCES1A-mediated DME hydrolysis in HLM
Method: According to the inhibition kinetics of both hCES1A and hCES2A, which were investigated by using varying concentrations of probe substrates in the presence of different concentrations of ginseng compounds (inhibitors), the inhibition constant (Ki) and inhibition kinetic types of ginsenosides were determined. The experimental details used to determine the inhibition constants have been reported previously.
All inhibition assays were performed in triplicate, nonlinear regression was used to determine the IC50 and Ki values with GraphPad Prism 7.0 software (GraphPad Software, Inc., La Jolla, USA).

hCES2A [4] = molecular target: T1, hCES2A; test: Inhibition kinetic analyses of hCES2A-mediated FD hydrolysis in HLM

| SMILES | inhibition of hCES2A-mediated FD hydrolysis (residual activity screen) (hCES2A [1]) | Specificity (hCES1A/hCES2A) (hCES2A [1]) | IC50 (hCES1A [2]) | Inhibition mode (hCES1A [3]) | Ki (hCES1A [3]) | Inhibition mode (hCES2A [4]) | IC50 (hCES2A [1]) | inhibition of hCES1A-mediated DME hydrolysis (residual activity screen) (hCES1A [2]; HLM, ginsenoside 100 μM, result in words) | Ki (hCES2A [4]) |
| --- | --- | --- | --- | --- | --- | --- | --- | --- | --- |
| CC(C)=CCC[C@](C)(O)[C@H]1CC[C@]2(C)[C@@H]1CC[C@@H]1[C@@]3(C)CC[C@H](O)C(C)(C)[C@@H]3CC[C@]12C [DM, Dammarenediol II] | strong or moderate inhibition | 3.06 | 1.99 ± 0.21 µM | Competitive | 2100 nM | Mixed | – | – | – |
| CC(C)=CCC[C@](C)(O[C@@H]1O[C@H](CO)[C@@H](O)[C@H](O)[C@H]1O)C1CC[C@]2(C)C1CCC1[C@@]3(C)CC[C@H](O)C(C)(C)C3CC[C@]12C (stereo partly drawn) [DMG, 20S-O-β-(D-glucosyl)-dammarenediol II] | strong inhibition | – | 1.76 ± 0.28 µM | Competitive | 2400 nM | Mixed | 1.06 ± 0.21 µM | strong inhibition | 2830 nM |
| CC(C)=CCC[C@](C)(O)[C@H]1CC[C@]2(C)[C@@H]1[C@H](O)C[C@@H]1[C@@]3(C)CC[C@H](O)C(C)(C)[C@@H]3CC[C@]12C [PPD, protopanaxadiol] | strong or moderate inhibition | > 75.18 | > 100 µM | – | – | Mixed | – | – | – |
| CC(C)=CCC[C@](C)(O)[C@H]1CC[C@]2(C)[C@@H]1[C@H](O)C[C@@H]1[C@@]3(C)CC[C@H](O)C(C)(C)[C@@H]3[C@@H](O)C[C@]12C [PPT, protopanaxatriol] | strong or moderate inhibition | > 116.28 | > 100 µM | – | – | Mixed | – | – | – |
| CC1(C)CCC2(C(=O)OC3OC(CO)C(O)C(O)C3O)CCC3(C)C(=CCC4C5(C)CCC(OC6OC(C(=O)O)C(O)C(O)C6OC6OC(CO)C(O)C(O)C6O)C(C)(C)C5CCC43C)C2C1 (stereo not drawn) [Ro] | – | – | > 100 µM | – | – | – | > 100 µM | – | – |
